Laboratory results published in patent US11919869B2, “CD73 compounds” (Gilead Sciences, Inc., priority 2021, dated 2024).
Converted amounts (≈) assume the structure as drawn. Structures can show the parent of a compound that is named as a salt. Where two headings read alike, the source gives them in different places.

Experiments:
[1] = Thermodynamic solubility in FaSSIF and FeSSIF; format: physicochemical; conditions: 20 hours, ambient temperature; for FaSSIF (pH 6.5): fasted-state simulated intestinal fluid pH 6.5; for FeSSIF (pH 5.0): fed-state simulated intestinal fluid pH 5.0
Protocol: Thermodynamic Solubility in FASSIF and FESSIF.
The aqueous solubility of compounds over a time of 20 hours was assessed. Solubility was determined at ambient temperature in buffered fasted-state simulated intestinal fluid (FaSSIF, pH 6.5) and buffered fed-state simulated intestinal fluid (FeSSIF, pH 5.0) prepared in-house using BioRelevant Simulated Intestinal Fluid (SIF) powder. Solids were added to FaSSIF or FeSSIF in 1.5-mL Eppendorf tubes, vortexed for 1 minute, then agitated for 20 hours in an Eppendorf ThermoMixer C. To determine concentration in solution, the suspensions were centrifuged for 10 min at 14,800 rpm and supernatants were diluted to a volume of 1 mL with 1:1 v/v acetonitrile:water. All diluted supernatants were analyzed by UPLC using a Waters Acquity UPLC with a PDA UV detector.

[2] = Kinetic solubility at pH 1 and 7; format: physicochemical; conditions: 1.0% DMSO; for solubility kinetic at 24 h: 23 °C, kinetic from dmso stock
Protocol: Kinetic Solubility at pH 1 and 7
100-fold dilutions of each compound as DMSO stock solution were prepared by combining 3 μL of DMSO stock with 297 μL of the appropriate media in a Millipore solubility filter plate with 0.45 μM polycarbonate filter membrane using Hamilton Starlet liquid handling. The final DMSO Concentration is 1.0% and maximum theoretical compound concentration is […] (assuming stock concentration of 10 mM). The filter plate was sealed. Following 24-hour incubation at ambient temperature (22.2-23.6° C.), the samples were vacuum filtered, and the filtrates were collected in a 96 well polypropylene plate for analysis. The collection plate was sealed for analysis. Filtrates were injected into the nitrogen detector for quantification. The equimolar nitrogen response of the detector is calibrated using standards which span the dynamic range of the instrument from 0.08 to 4500 μg/ml nitrogen. The filtrates were quantified with respect to this calibration curve. The calculated solubility values are corrected for background nitrogen present in the DMSO, and the media used to prepare the samples

[3] = target: T1, alkaline phosphatase (intestinal) (Bos taurus, UniProt P19111); assay: Alkaline phosphatase stability assay; format: in vitro ADME; conditions: 2 μM substrate, 100 ng/mL purified Bovine intestinal alkaline phosphatase, Tris buffer pH 7.8; read-out: ALP half life
T1 construct: purchased MilliPore Sigma
T1 sequence (P19111 20-506 limits assumed): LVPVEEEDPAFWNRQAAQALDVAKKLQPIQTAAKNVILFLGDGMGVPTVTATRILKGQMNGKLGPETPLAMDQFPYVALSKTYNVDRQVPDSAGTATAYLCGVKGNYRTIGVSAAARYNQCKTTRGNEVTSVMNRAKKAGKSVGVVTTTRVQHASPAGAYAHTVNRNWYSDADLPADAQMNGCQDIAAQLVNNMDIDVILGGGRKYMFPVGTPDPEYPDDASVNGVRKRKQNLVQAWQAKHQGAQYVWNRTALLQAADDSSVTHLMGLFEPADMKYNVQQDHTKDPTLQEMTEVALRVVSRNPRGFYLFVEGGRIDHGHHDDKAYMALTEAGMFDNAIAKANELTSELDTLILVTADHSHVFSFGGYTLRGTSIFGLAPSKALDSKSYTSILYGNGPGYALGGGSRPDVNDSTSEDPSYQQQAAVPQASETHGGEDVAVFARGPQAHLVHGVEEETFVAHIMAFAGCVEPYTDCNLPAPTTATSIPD
Protocol: Alkaline Phosphatase Stability Assay
(§1) Alkaline phosphatase stability assays were carried out using purified Bovine intestinal alkaline phosphatase. Duplicate sets were performed with a TECAN liquid handler. Assay substrate concentrations were 2 μM. Purified Bovine intestinal alkaline phosphatase was acquired through MilliPore Sigma as a lyophilized powder. Reaction mixtures were prepared by the addition of 2 μL compound (400 μM stock solution in DMSO) into wells of a 96-well plate containing […] Tris buffer (100 mM, pH 7.8, 1 mM MgCl2 and 1 mM ZnCl2) with and without 100 ng/mL purified Bovine intestinal alkaline phosphatase. Samples were assessed at time points of 3, 30, 60, 120, 180 and 240 minutes. At each time point, 25 μL of the reaction mixtures were added into a 96-well plate containing 225 μL of quench solution (99% Acetonitrile with 1% Formic Acid and 100 nM Labetalol as internal standard). The plates containing the quench samples were then vortexed at 1100 RPM for 10 minutes and centrifuged at 4500 RPM for 20 minutes. 150 μL of the resulting supernatant was transferred into a 96-well plate containing 150 μL of water and vortexed at 1100 RPM for 3 minutes to mix.
(§2) Samples were analyzed with a Leap HTC Autosampler and a Dionex UltiMate 3000 HPLC system interfaced to a Thermo Q-Exactive mass spectrometer operating in positive ion electrospray mode. A Thermo Scientific Hypersil GOLD (1.9 μM particle size, 50×2.1 mm) HPLC column was used and mobile phase was pumped at 0.5 mL/min. Elution of analytes was achieved by a series of linear gradients of acetonitrile in water containing 0.1% (v/v) formic acid. Quantification was by analyte/internal standard peak area ratio (PAR).

[4] = Assay buffer stability (Tris buffer without alkaline phosphatase); format: physicochemical; conditions: 2 μM substrate, Tris buffer pH 7.8 without alkaline phosphatase
Protocol: as §1, §2

[5] = In vivo cyno pharmacokinetics; conditions: cynomolgus monkeys
Protocol: In Vivo Cyno Pharmacokinetics Experiments
In vivo cyno pharmacokinetic experiments of compound Comparator B and Example 1 were assessed as follows.
Compound Comparator B hydrochloride salt was dosed as a 30 mg/kg suspension to cynomolgus monkeys (N=3) using the following formulation: 0.5% Methocel E4M Premium, 0.1% Tween-80, 99.4% Water. Compound Comparator B free base was dosed separately as a 12.5 mg/kg (50 mg-fixed) suspension to cynomolgus monkeys (N=3) using the following formulation: 0.5% Methocel E4M Premium, 0.1% Tween-80, 99.4% Water. Compound Example 1 was dosed separately as a 12.5 mg/kg (50 mg-fixed) suspension to cynomolgus monkeys (N=3) using the following formulation: 0.5% Methocel E4M Premium, 0.1% Tween-80, 99.4% Water. […] As is shown in Table 4, the AUC 0-24 h measured for Comparator B in plasma was higher after dosing with Example 1 than the value measured after dosing with an equivalent dose of Comparator B.

[6] = In vivo rat pharmacokinetics; conditions: rat; Wister Han rats, 100 mg/kg suspension; Comparator C measured in plasma; read-out: Comparator C AUC 0-24 h
Protocol: In Vivo Rat Pharmacokinetics Experiments
In vivo Wister Han rat pharmacokinetic experiments of compound Comparator C and Example 4 were assessed as follows.
Compound Comparator C was dosed as a 100 mg/kg suspension to Wister Han rats (N=3) using the following formulation:30% captisol, 5% soluplus, 65% pH 2 water. Compound 1170997 was dosed separately as a 100 mg-eq/kg (123 mg/kg) solution to Wister Han rats (N=3) using the following formulation: 0.5% Methocel E4M Premium, 0.1% Tween-80, 99.4% Water. Samples were assessed for the presence of Comparator C.
Comparator C and Example 4. […] As is shown in Table 4, the AUC 0-24 h measured for Comparator C in plasma was higher after dosing with Example 4 than the value measured after dosing with an equivalent dose of Comparator C.

[7] = pH 1, 24-hour incubation at ambient temperature
[8] = pH 7, 24-hour incubation at ambient temperature
[9] = aqueous buffer, pH 7, 24-hour incubation at ambient temperature, read-out: Kinetic Solubility pH 7
[10] = simulated gastric fluid, pH 1, 24-hour incubation at ambient temperature, read-out: Kinetic Solubility pH 1

| FaSSIF (pH 6.5) [1] [ug/mL] | FeSSIF (pH 5.0) [1] [ug/mL] | solubility kinetic at 24 h [2, 9] [µM] | solubility kinetic at 24 h [2, 10] [µM] | half-life at 2 µM [3] [min] | Compound | also measured |
| --- | --- | --- | --- | --- | --- | --- |
| 0.5 | 11.1 | – | – | – | 5-(7-((1S,2S)-2-(1-(2,2,2-trifluoroethyl)-1H-indazol-6-yl)cyclopropyl)pyrazolo[1,5-a]pyrimidin-5-yl)pyrimidine-2,4(1H,3H)-dione [reference compound] | Kinetic Solubility pH 1 [2, 7]: 65 uM; Kinetic Solubility pH 7 [2, 8]: 7 uM |
| – | – | 85 | 10 | 8 | O=c1[nH]c(=O)n(COP(=O)(O)O)cc1-c1cc([C@H]2C[C@@H]2c2ccc3cnn(CC(F)(F)F)c3c2)n2nccc2n1 [Example 6, (2,4-dioxo-5-(7-((1S,2S)-2-(1-(2,2,2-trifluoroethyl)-1H-indazol-6-yl)cyclopropyl)pyrazolo[1,5-a]pyrimidin-5-yl)-3,4-dihydropyrimidin-1(2H)-yl)methyl dihydrogen phosphate] | half-life at 2 µM [4]: > 1580 min |
| – | – | 86 | 79 | 14 | O=c1[nH]c(=O)n(COP(=O)(O)O)cc1-c1cc([C@H]2C[C@@H]2c2ccc3cnn(CC(F)(F)F)c3n2)c2ncc(F)n2n1 [Example 5, (5-(3-fluoro-8-((1S,2S)-2-(1-(2,2,2-trifluoroethyl)-1H-pyrazolo[3,4-b]pyridin-6-yl)cyclopropyl)imidazo[1,2-b]pyridazin-6-yl)-2,4-dioxo-3,4-dihydropyrimidin-1(2H)-yl)methyl dihydrogen phosphate] | half-life at 2 µM [4]: > 1580 min |
| – | – | 89 | 3 | 11 | O=c1[nH]c(=O)n(COP(=O)(O)O)cc1-c1cc([C@H]2C[C@@H]2c2ccc3cnn(CC(F)(F)F)c3c2)c2nccn2n1 [Example 2, (2,4-dioxo-5-(8-((1S,2S)-2-(1-(2,2,2-trifluoroethyl)-1H-indazol-6-yl)cyclopropyl)imidazo[1,2-b]pyridazin-6-yl)-3,4-dihydropyrimidin-1(2H)-yl)methyl dihydrogen phosphate] | – |
| 12 | 33 | 5 (≈ 1.81 µg/mL) | 95 (≈ 34.4 µg/mL) | – | CC1(C)CN(c2cc(-c3c[nH]c(=O)[nH]c3=O)nn3ccnc23)CC1(F)F [B, 5-[8-(3,3-difluoro-4,4-dimethyl-pyrrolidin-1-yl)imidazo[1,2-b]pyridazin-6-yl]-1H-pyrimidine-2,4-dione, reference compound] | – |
| – | – | 8 (≈ 3.89 µg/mL) | 94 (≈ 45.7 µg/mL) | – | O=c1[nH]cc(-c2cc([C@H]3C[C@@H]3c3ccc4cnn(CC(F)(F)F)c4n3)c3ncc(F)n3n2)c(=O)[nH]1 [E, reference compound] | – |
| >1000 | >1000 | > 100 | > 100 | 10 | CC1(C)CN(c2cc(-c3cn(COP(=O)(O)O)c(=O)[nH]c3=O)nn3ccnc23)CC1(F)F [Example 1, (5-(8-(3,3-difluoro-4,4-dimethylpyrrolidin-1-yl)imidazo[1,2-b]pyridazin-6-yl)-2,4-dioxo-3,4-dihydropyrimidin-1(2H)-yl)methyl dihydrogen phosphate] | half-life at 2 µM [4]: > 1580 min; AUC 0-24 h measured for Comparator B in plasma, compared with dosing an equivalent dose of Comparator B ([5]; 12.5 mg/kg (50 mg-fixed) suspension): higher |
| – | – | – | – | – | O=c1[nH]cc(-c2cc([C@H]3C[C@@H]3c3ccc4cnn(CC(F)(F)F)c4c3)c3ncc(F)n3n2)c(=O)[nH]1 [Comparator C HCl salt, reference compound] | AUC(0-t) [6]: 11.2 µM·h |
| – | – | > 100 | 91 | – | O=c1c(-c2cc([C@H]3C[C@@H]3c3ccc4cnn(CC(F)(F)F)c4c3)c3ncc(F)n3n2)cn(COP(=O)(O)O)c(=O)n1COP(=O)(O)O [Example 3, (5-(3-fluoro-8-((1S,2S)-2-(1-(2,2,2-trifluoroethyl)-1H-indazol-6-yl)cyclopropyl)imidazo[1,2-b]pyridazin-6-yl)-2,4-dioxopyrimidine-1,3(2H,4H)-diyl)bis(methylene) bis(dihydrogen phosphate)] | – |
| 0.7 | 12.4 | – | – | – | 5-(8-((1S,2S)-2-(1-(2,2,2-trifluoroethyl)-1H-indazol-5-yl)cyclopropyl)imidazo[1,2-b]pyridazin-6-yl)pyrimidine-2,4(1H,3H)-dione [reference compound] | Kinetic Solubility pH 1 [2, 7]: 72 uM; Kinetic Solubility pH 7 [2, 8]: 10 uM |
| – | – | – | – | – | 5-(3-fluoro-8-((1S,2S)-2-(1-(2,2,2-trifluoroethyl)-1H-pyrazolo[3,4-b]pyridin-6-yl)cyclopropyl)imidazo[1,2-b]pyridazin-6-yl)pyrimidine-2,4(1H,3H)-dione [reference compound] | Kinetic Solubility pH 1 [2, 7]: 9 uM; Kinetic Solubility pH 7 [2, 8]: 6 uM |
| – | – | > 100 | 89 | – | O=c1c(-c2cc([C@H]3C[C@@H]3c3ccc4cnn(CC(F)(F)F)c4c3)n3nccc3n2)cn(COP(=O)(O)O)c(=O)n1COP(=O)(O)O [Example 7, (2,4-dioxo-5-(7-((1S,2S)-2-(1-(2,2,2-trifluoroethyl)-1H-indazol-6-yl)cyclopropyl)pyrazolo[1,5-a]pyrimidin-5-yl)pyrimidine-1,3(2H,4H)-diyl)bis(methylene) bis(dihydrogen phosphate)] | – |
| – | – | – | – | – | CC1(C)CN(c2cc(-c3c[nH]c(=O)[nH]c3=O)nn3ccnc23)CC1(F)F [Comparator B HCl salt, 5-[8-(3,3-difluoro-4,4-dimethyl-pyrrolidin-1-yl)imidazo[1,2-b]pyridazin-6-yl]-1H-pyrimidine-2,4-dione, reference compound] | AUC(0-t) ([5]; cynomolgus monkey, 120 mg fixed (30 mg/kg) suspension, Comparator B measured in plasma, read-out: Comparator B AUC 0-24 h): 33.2 µM·h |
